# Values of other authors in patent US20120016347A1, “Seroma Control for Surgical Patients” (priority 2010, published 2012).
# Tested on: pleural effusions
# Settings: Patz (Chest, 1998)
row,Molecule,Success rate in completely or partially controlling pleural effusions
1,bleomycin,72%
2,"C[C@H]1c2cccc(O)c2C(O)=C2C(=O)[C@]3(O)C(O)=C(C(N)=O)C(=O)[C@@H](N(C)C)[C@@H]3[C@@H](O)[C@@H]21 [doxyclycline, doxycycline]",79%
